Results on twelve compounds are retold here after patent publication US8822517B2, “Arylosulfonamides for the treatment of CNS diseases” (Adamed SP. Z O.O., priority 2010, dated 2014).

Experiment [1] addresses T1, serotonine transporter (SERT) receptor (Homo sapiens, UniProt P31645).
T1 construct: expressed in transfected cells; host or cells: CHO cells
Put plainly: Binding assay SERT (h), [3H]imipramine, CHO cells. As to conditions: read-out: SERT [%]. The procedure, abridged: (§1)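 Tested at 1×10^−6 M. Specific binding: total minus binding remaining with excess cold ligand. Detection: scintillation counting.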

The target in the next experiment is dopaminergic D2 receptor (Homo sapiens, UniProt P14416). Put plainly: Binding assay D2S (h), [3H]methyl-spiperone, HEK-293 cells. Further details: expressed in transfected cells; host or cells: HEK-293 cells. As to conditions: read-out: D2 [%]. The procedure, abridged:
as §1

Experiment [2] has as its target serotoninergic 5-HT7 receptor (Homo sapiens, UniProt P34969). Briefly: Binding assay 5-HT7 (h), [3H]LSD, CHO cells. Further details: expressed in transfected cells; host or cells: CHO cells. As to conditions: read-out: 5-HT7. The procedure, abridged:
as §1

The target of the next experiment is dopaminergic D3 receptor (Homo sapiens, UniProt P35462). Put plainly: Binding assay D3 (h), [3H]methyl-spiperone, CHO cells. Set-up: expressed in transfected cells; host or cells: CHO cells. As to conditions: read-out: D3 [%]. In a few lines: as §1
Sequence of dopaminergic D3 receptor (P35462 whole entry): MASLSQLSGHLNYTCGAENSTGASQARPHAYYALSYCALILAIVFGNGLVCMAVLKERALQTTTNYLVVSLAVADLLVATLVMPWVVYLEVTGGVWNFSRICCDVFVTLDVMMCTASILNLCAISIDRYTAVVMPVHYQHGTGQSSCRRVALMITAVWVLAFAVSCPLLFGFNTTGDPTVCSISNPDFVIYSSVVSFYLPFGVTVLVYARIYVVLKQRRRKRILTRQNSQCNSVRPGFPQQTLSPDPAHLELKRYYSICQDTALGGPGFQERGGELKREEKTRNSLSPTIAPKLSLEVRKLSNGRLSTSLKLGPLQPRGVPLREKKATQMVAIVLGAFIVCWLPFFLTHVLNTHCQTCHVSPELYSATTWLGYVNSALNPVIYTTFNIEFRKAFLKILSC
The subject of another experiment is adrenergic α1 receptor. Put plainly: Binding assay α1 (non-selective), [3H]prazosin, rat cerebral cortex. As to conditions: percent inhibition of control specific binding; compounds tested at 1×10^−6 M. In a few lines: as §1
The target of experiment [3] is T2, serotoninergic 5-HT1A receptor (Homo sapiens, UniProt P08908).
T2 sequence (P08908 1-422): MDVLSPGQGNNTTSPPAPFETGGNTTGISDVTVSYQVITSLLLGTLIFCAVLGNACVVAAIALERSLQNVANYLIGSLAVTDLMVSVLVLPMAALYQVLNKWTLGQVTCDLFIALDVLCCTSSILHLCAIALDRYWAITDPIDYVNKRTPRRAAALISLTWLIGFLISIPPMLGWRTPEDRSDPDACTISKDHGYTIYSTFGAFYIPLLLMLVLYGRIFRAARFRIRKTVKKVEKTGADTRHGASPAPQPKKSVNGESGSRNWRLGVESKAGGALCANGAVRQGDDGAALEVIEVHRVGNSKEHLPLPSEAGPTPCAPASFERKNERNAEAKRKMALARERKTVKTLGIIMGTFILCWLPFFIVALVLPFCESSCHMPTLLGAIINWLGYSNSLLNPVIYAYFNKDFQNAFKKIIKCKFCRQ
Briefly: Binding assay 5-HT1A (h), [3H]8-OH-DPAT, HEK-293 cells. Further details: expressed in transfected cells; host or cells: HEK-293 cells. As to conditions: read-out: 5-HT1A. In a few lines:
as §1

Experiment [4] has as its target serotoninergic 5-HT2A receptor (Homo sapiens, UniProt P28223). Briefly: Binding assay 5-HT2A (h), [3H]ketanserin, HEK-293 cells. As to conditions: read-out: 5-HT2A. Set-up: expressed in transfected cells; host or cells: HEK-293 cells. The procedure, abridged:
as §1

Experiment [5] has as its target serotoninergic 5-HT6 receptor (Homo sapiens, UniProt P50406). Briefly: Binding assay 5-HT6 (h), [3H]LSD, CHO cells. Set-up: expressed in transfected cells; host or cells: CHO cells. As to conditions: read-out: 5-HT6. The procedure, abridged: as §1

Sequence of serotoninergic 5-HT2A receptor (P28223 whole entry): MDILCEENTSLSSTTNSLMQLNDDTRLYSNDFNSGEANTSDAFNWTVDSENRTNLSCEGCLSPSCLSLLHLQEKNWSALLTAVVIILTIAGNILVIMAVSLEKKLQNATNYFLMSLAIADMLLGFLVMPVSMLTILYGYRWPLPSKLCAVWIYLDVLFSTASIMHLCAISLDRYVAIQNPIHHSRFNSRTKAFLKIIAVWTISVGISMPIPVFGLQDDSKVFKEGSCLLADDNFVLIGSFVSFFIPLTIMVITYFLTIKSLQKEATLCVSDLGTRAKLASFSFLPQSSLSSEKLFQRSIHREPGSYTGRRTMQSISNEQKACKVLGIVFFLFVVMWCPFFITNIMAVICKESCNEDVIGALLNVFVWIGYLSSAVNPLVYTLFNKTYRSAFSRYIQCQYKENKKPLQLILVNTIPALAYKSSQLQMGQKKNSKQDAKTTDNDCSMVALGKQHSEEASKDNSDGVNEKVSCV
T1 sequence (P31645 whole entry): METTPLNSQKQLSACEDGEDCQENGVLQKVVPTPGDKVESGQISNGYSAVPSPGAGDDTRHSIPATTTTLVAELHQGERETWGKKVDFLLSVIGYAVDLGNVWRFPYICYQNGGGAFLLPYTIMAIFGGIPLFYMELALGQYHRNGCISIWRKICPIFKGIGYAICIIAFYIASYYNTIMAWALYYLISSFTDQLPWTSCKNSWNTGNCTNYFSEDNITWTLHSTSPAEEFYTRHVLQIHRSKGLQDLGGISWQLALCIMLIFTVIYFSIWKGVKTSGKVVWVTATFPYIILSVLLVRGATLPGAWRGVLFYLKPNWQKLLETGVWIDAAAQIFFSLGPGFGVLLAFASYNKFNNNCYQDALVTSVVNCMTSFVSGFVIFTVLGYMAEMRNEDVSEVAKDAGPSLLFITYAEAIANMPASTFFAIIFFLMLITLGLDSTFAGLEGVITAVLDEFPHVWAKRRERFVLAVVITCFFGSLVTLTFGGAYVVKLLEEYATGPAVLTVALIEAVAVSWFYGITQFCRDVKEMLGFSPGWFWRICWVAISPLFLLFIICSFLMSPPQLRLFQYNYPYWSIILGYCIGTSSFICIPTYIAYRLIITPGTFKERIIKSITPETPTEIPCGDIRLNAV
Sequence of serotoninergic 5-HT7 receptor (P34969 whole entry): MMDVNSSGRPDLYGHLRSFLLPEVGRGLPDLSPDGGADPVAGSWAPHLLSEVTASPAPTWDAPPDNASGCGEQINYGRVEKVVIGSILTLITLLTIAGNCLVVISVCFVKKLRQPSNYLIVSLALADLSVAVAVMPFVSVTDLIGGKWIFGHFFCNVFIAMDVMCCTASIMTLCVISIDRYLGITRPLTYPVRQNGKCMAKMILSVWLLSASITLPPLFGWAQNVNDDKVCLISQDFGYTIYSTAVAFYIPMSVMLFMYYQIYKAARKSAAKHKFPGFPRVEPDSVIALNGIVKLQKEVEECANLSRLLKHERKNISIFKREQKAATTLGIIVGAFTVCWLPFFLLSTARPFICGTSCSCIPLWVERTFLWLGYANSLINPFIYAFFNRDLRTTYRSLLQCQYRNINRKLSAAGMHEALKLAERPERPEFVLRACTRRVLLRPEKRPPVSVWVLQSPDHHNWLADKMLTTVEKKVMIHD
Sequence of serotoninergic 5-HT6 receptor (P50406 whole entry): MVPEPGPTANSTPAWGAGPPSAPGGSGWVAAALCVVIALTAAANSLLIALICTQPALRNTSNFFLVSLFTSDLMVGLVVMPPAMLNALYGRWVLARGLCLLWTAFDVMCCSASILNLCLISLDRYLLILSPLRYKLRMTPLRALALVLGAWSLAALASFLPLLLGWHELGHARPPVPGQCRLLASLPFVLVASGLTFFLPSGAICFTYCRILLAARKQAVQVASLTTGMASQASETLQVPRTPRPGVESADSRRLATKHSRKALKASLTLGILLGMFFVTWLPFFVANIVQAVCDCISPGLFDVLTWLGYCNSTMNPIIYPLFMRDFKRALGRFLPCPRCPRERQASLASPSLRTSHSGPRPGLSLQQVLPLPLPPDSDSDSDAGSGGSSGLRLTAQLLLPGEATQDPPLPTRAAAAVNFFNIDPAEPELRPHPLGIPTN
Sequence of dopaminergic D2 receptor (P14416 1-414 isoform P14416-2): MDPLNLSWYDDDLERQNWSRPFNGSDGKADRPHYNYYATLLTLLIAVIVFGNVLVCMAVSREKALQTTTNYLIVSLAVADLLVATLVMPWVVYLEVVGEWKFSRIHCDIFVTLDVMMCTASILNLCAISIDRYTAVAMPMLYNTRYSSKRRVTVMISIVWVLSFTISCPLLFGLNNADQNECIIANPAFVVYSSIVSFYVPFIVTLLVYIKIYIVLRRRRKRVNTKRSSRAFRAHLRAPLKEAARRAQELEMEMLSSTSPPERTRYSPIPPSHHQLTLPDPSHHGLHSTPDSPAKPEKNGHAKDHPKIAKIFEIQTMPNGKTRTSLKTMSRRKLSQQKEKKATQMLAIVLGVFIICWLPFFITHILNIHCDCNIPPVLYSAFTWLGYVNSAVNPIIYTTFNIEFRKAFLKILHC

`O=S(=O)(NCCCN1CCC(c2noc3cc(F)ccc23)CC1)c1cc2ccccc2o1` [Compound 349, N-[3-[4-(6-Fluoro-1,2-benzoxazol-3-yl)piperidin-1-yl]propyl]benzofuran-2-sulphonamide]: the inhibition at 1 µM was determined as 0% in experiment [1]; 93% at dopaminergic D2 receptor; 91% in experiment [2]; 100% at dopaminergic D3 receptor; 49% in experiment [3]; 108% in experiment [4]. Besides, the inhibition at 1 µM in experiment [5] came out at 87%. The “α1 [%]” value with adrenergic α1 receptor worked out at 98%.

Regarding `O=S(=O)(NCCCN1CCC(c2noc3cc(F)ccc23)CC1)c1ccc(Cl)c(Cl)c1` [Compound 329, 3,4-Dichloro-N-[3-[4-(6-fluoro-1,2-benzoxazol-3-yl)piperidin-1-yl]propyl]benzenesulphonamide], the inhibition at 1 µM was -2% in experiment [1]; 109% on dopaminergic D2 receptor; 95% in experiment [2]; 99% on dopaminergic D3 receptor; 69% in experiment [3]; 91% in experiment [4]. Also, the inhibition at 1 µM in experiment [5] was 97%. Further, in the experiment with adrenergic α1 receptor, the “α1 [%]” value came to 102%.

For `O=S(=O)(NCCCCN1CCC(c2noc3cc(F)ccc23)CC1)c1cccc(Cl)c1` [Compound 105, 3-Chloro-N-[4-[4-(6-fluoro-1,2-benzoxazol-3-yl)piperidin-1-yl]butyl]benzenesulphonamide], the inhibition at 1 µM is -11% in experiment [1]; 107% at dopaminergic D2 receptor; 85% in experiment [2]; 88% on dopaminergic D3 receptor; 41% in experiment [3]; 91% in experiment [4]. Moreover, the inhibition at 1 µM in experiment [5] stood at 87%. Further, the “α1 [%]” value with adrenergic α1 receptor is recorded as 96%.

With `O=S(=O)(NCCCCN1CCN(c2nsc3ccccc23)CC1)c1ccc2c(c1)CCO2` [Compound 242, N-[4-[4-(1,2-Benzothiazol-3-yl)piperazin-1-yl]butyl]-2,3-dihydrobenzofuran-5-sulphonamide], the inhibition at 1 µM in experiment [1] is 12%; at dopaminergic D2 receptor, 105%; in experiment [2], 101%; at dopaminergic D3 receptor, 89%; in experiment [3] it was 92%; in experiment [4], 94%. Besides, the inhibition at 1 µM in experiment [5] is 73%. For the same compound, the “α1 [%]” value with adrenergic α1 receptor was determined as 98%.

For the compound `O=S(=O)(NCCCCN1CCN(c2cccc3c2OCCO3)CC1)c1ccc2cn[nH]c2c1` [Compound 402, N-[4-[4-(2,3-Dihydro-1,4-benzodioxin-5-yl)piperazin-1-yl]butyl]-1H-indazole-6-sulphonamide], the inhibition at 1 µM came out at 16% in experiment [1]; 68% on dopaminergic D2 receptor; 100% in experiment [2]; 89% on dopaminergic D3 receptor; 102% in experiment [3]; 76% in experiment [4]. Moreover, the inhibition at 1 µM in experiment [5] is 1%. In addition, the “α1 [%]” value with adrenergic α1 receptor was 94%.

Take `N#Cc1cccc(S(=O)(=O)NCCCCN2CCN(c3nsc4ccccc34)CC2)c1` [Compound 73, N-[4-[4-(1,2-Benzothiazol-3-yl)piperazin-1-yl]butyl]-3-cyanobenzenesulphonamide]: the inhibition at 1 µM came to 37% in experiment [1]; 102% at dopaminergic D2 receptor; 91% in experiment [2]; 94% at dopaminergic D3 receptor; 92% in experiment [3]; 81% in experiment [4]. Besides, in experiment [5], the inhibition at 1 µM came to 82%. Moreover, the “α1 [%]” value with adrenergic α1 receptor was found to be 98%.

For `O=S(=O)(NCCCCN1CCC(c2noc3cc(F)ccc23)CC1)c1ccsc1` [Compound 307, N-[4-[4-(6-Fluoro-1,2-benzoxazol-3-yl)piperidin-1-yl]butyl]thiophene-3-sulphonamide], the inhibition at 1 µM in experiment [1] is -3%; on dopaminergic D2 receptor, 88%; in experiment [2], 85%; on dopaminergic D3 receptor, 95%; in experiment [3], 73%; in experiment [4], 99%. Further, the inhibition at 1 µM in experiment [5] was found to be 76%. Also, the “α1 [%]” value in the experiment with adrenergic α1 receptor was 105%.

`O=S(=O)(NCCCCN1CCC(c2noc3cc(F)ccc23)CC1)c1ccc(F)c(Cl)c1` [Compound 299, 3-Chloro-4-fluoro-N-[4-[4-(6-fluoro-1,2-benzoxazol-3-yl)piperidin-1-yl]butyl]benzenesulphonamide]: the inhibition at 1 µM in experiment [1] turned out to be 14%; at dopaminergic D2 receptor, 87%; in experiment [2], 75%; at dopaminergic D3 receptor it was 98%; in experiment [3], 45%; in experiment [4] it was 89%. Also, the inhibition at 1 µM in experiment [5] came out at 84%. The “α1 [%]” value in the experiment on adrenergic α1 receptor is on record as 98%.

With `O=S(=O)(NCCCN1CCN(c2nsc3ccccc23)CC1)c1ccc2cc(Cl)ccc2c1` [Compound 62, N-[3-[4-(1,2-Benzothiazol-3-yl)piperazin-1-yl]propyl]-6-chloro-naphthalene-2-sulphonamide], the inhibition at 1 µM in experiment [1] was determined as 15%; at dopaminergic D2 receptor it was 92%; in experiment [2], 78%; on dopaminergic D3 receptor, 63%; in experiment [3] it was 46%; in experiment [4], 101%. In addition, in experiment [5], the inhibition at 1 µM worked out at 69%. In addition, the “α1 [%]” value in the experiment with adrenergic α1 receptor amounted to 61%.

`O=S(=O)(NCCCN1CCC(c2noc3cc(F)ccc23)CC1)c1ccc2c(c1)OCO2` [Compound 354, N-[3-[4-(6-Fluoro-1,2-benzoxazol-3-yl)piperidin-1-yl]propyl]-1,3-benzodioxole-5-sulphonamide]: the inhibition at 1 µM came out at 6% in experiment [1]; 83% at dopaminergic D2 receptor; 96% in experiment [2]; 88% at dopaminergic D3 receptor; 59% in experiment [3]; 86% in experiment [4]. Moreover, in experiment [5], the inhibition at 1 µM amounted to 86%. The “α1 [%]” value in the experiment on adrenergic α1 receptor stood at 103%.

On to `Cc1c(S(=O)(=O)NCCCCN2CCN(c3cccc4[nH]c(=O)[nH]c34)CC2)sc2ccc(Cl)cc12` [Compound 165, 5-Chloro-3-methyl-N-[4-[4-(2-oxo-1,3-dihydrobenzimidazol-4-yl)piperazin-1-yl]butyl]-1-benzothiophene-2-sulfonamide], for which the inhibition at 1 µM in experiment [1] amounted to 4%; at dopaminergic D2 receptor, 64%; in experiment [2] it was 86%; at dopaminergic D3 receptor, 89%; in experiment [3], 70%; in experiment [4], 37%. Further, in experiment [5], the inhibition at 1 µM is -16%. The “α1 [%]” value in the experiment on adrenergic α1 receptor is reported as 47%.

With `O=S(=O)(NCCCCN1CCN(c2cccc3c2OCCO3)CC1)c1ccc(-c2ccccc2)cc1` [Compound 396, N-[4-[4-(2,3-Dihydro-1,4-benzodioxin-5-yl)piperazin-1-yl]butyl]-4-phenylbenzenesulphonamide], the inhibition at 1 µM stood at 16% in experiment [1]; 68% at dopaminergic D2 receptor; 88% in experiment [2]; 86% at dopaminergic D3 receptor; 85% in experiment [3]; 58% in experiment [4]. Further, in experiment [5], the inhibition at 1 µM was 31%. Moreover, the “α1 [%]” value with adrenergic α1 receptor stood at 84%.
